# Test results from patent US8853242B2, “Nitrogenous-ring acylguanidine derivative” (Astellas Pharma Inc., priority 2009, dated 2014).
# Structures can show the parent of a compound that is named as a salt.
# Target: human 5-HT5A receptor (Homo sapiens (Human), UniProt P47898)
# Assay: Test on a human 5-HT5A receptor binding inhibition ([3H]5-CT)
# Settings: [3H]5-CT binding inhibition, membrane from HEK293 cells expressing human 5-HT5A receptor; Ki calculated from IC50
# Description: The ORF (open reading frame; protein coding region) of a human 5-HT5A receptor (Genbank AF498985) was cloned from a human hippocampus cDNA library, and then inserted into a pCR2.1 vector (Invitrogen), and Escherichia coli containing the plasmid was cultured in a large amount. Next, the full-length cDNA sequence of the human 5-HT5A receptor was analyzed, and recombined into a pCDNA3.1 vector (Invitrogen) as an expression vector and cultured in a large amount. HEK293 established cells (ATCC) derived from the human fetal kidney were seeded, the expression plasmid (1 μg) obtained above were added thereto with LIPOFECTAMINE 2000 (Invitrogen; 2 μl), the gene was transfected into HEK293 cells, and the expression cells were screened with a drug-resistant marker, Geneticin (G418 sulfate 500 μg/ml; Kanto Chemical Co., Inc.). Thus prepared recombinant cells which expressed the gene were cultured in a medium containing D-MEM (Dulbecco's modified eagle medium, Sigma), 10% FCS (Fetal calf serum: fetal bovine serum), 1% Pc./Sm (Penicillin/Streptomycin, Invitrogen), and 500 μg/ml G418 for 3 days. These experimental operations followed a manual for gene operation experiment and an instruction appended in a reagent, and the like, such as a known method (Sambrook, J. et al, Molecular Cloning-A Laboratory Manual”, Cold Spring Harabor laboratory, NY, 1989).
# HEK293 cells for forced expressions of a human 5-HT5A receptor were cultured in a F500 plate, and scraped with a scraper. After centrifugation, the precipitate was collected, and an incubation buffer (50 mM Tris (HCl) (pH 7.4), 10 mM MgSO4, and 0.5 mM EDTA (ethylenediamine tetraacetic acid)) was added thereto. After homogenization, it was further centrifuged, and the incubation buffer was added to the precipitate, followed by thoroughly suspending. The operation was repeated, and protein concentration was measured, thereby completing preparation of the membrane.
# A solution of the compound to be tested and 100 μM 5-CT (5-carboxamidetriptamine) in DMSO was added to a 96-well plate at 2 μl/well, suspended in an incubation buffer, and a membrane from HEK293 cells for forced expressions of a human 5-HT5A receptor prepared at 200 μg/ml was added at 100 μl/well. After incubation at room temperature for 15 minutes, a [^3H]5-CT solution (2 nM [^3H]5-CT, incubation buffer) was added thereto at 100 μl/well.
# Separately, 100 μl of the solution was distributed into a liquid scintillation vial, and 2 ml of Aquasol II (registered trademark) was added thereto, followed by stirring. Then, radioactivity was measured by a liquid scintillation counter. It was incubated at 37° C. for 60 minutes. The reaction mixture was sucked into 96-well GF/C filter plate that had been pre-treated with 0.2% polyethyleneimine, and washed six times with an ice-cooled, 50 mM Tris (pH 7.5) buffer. The GF/C filter plate was dried.
# Microscint TMPS (registered trademark) was added thereto at 40 μl/well. Radioactivity remaining on the GF/C filter plate was measured by a top counter.
# The [^3H]5-CT binding inhibiting activity by the compound to be tested in each experiment was determined as an IC50 value with a radioactivity upon addition of DMSO alone being 0% inhibition, and a radioactivity upon addition of 1 μM 5-CT being 100% inhibition. Separately, Ki values were calculated from the Kd value of the [^3H]5-CT determined from Scatchard analysis, by the following equation. Ki=IC50(1+Concentraion of ligand added/Kd(4.95 nM))
# Chain of human 5-HT5A receptor (P47898 whole entry): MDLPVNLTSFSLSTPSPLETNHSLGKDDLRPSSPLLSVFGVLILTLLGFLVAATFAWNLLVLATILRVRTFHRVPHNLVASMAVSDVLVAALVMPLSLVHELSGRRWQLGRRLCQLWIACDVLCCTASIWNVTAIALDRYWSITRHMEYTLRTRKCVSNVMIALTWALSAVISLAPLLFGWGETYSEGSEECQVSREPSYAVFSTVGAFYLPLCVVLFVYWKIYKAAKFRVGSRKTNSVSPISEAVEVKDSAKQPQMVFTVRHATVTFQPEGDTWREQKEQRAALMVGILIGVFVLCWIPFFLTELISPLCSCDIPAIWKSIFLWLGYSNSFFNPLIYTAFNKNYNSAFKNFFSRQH
row,SMILES,Ki [nM]
1,Cc1nc2ccc(C(=O)N=C(N)N)cc2c(-c2c(F)cc(F)cc2F)c1C [Example 114],3.7
2,NC(N)=NC(=O)c1ccc2c(F)cnc(-c3c(F)cncc3Cl)c2c1 [Example 164],4.7
3,NC(N)=NC(=O)c1ccc2c(F)cnc(-c3ncc(F)cc3Cl)c2c1 [Example 171],6.2
4,NC(N)=NC(=O)c1ccc2c(F)cnc(-c3ccccc3Cl)c2c1 [Example 161],3.4
5,NC(N)=NC(=O)c1ccc2c(Cl)cnc(-c3ccc(F)cc3F)c2c1 [Example 211],2.3

# Same assay, conditions: [3H]5-CT binding, membrane from HEK293 cells expressing human 5-HT5A receptor; Ki calculated from IC50
row,SMILES,Ki [nM]
1,Cc1cc(C(=O)N=C(N)N)cc2c(C3CC3)ccnc12 [Example 71],10 to 100
2,NC(N)=NC(=O)c1ccc2nccc(-c3c(F)cc(Cl)cc3F)c2c1 [Example 13],1 to 10
3,Cc1nc2ccc(C(=O)N=C(N)N)cc2c(-c2ccc(F)cc2)c1C [Example 118],10 to 100
4,Cc1cnc2ccc(C(=O)N=C(N)N)cc2c1-c1c(F)cc(F)cc1F [Example 17],1 to 10
5,Cc1nc2ccc(C(=O)N=C(N)N)cc2c(-c2ccncc2Cl)c1C [Example 127],10 to 100
6,COc1ccc(-c2ccnc3c(C)cc(C(=O)N=C(N)N)cc23)c(Cl)c1 [Example 70],1 to 10
7,Cc1cc(-c2ccccc2F)c2cc(C(=O)N=C(N)N)ccc2n1 [Example 82],10 to 100
8,NC(N)=NC(=O)c1ccc2c(F)cnc(-c3cccc(F)c3F)c2c1 [Example 205],10 to 100
9,"NC(N)=NC(=O)c1ccc2ccnc(-c3c(F)cc(F)cc3F)c2c1 [Example 1, N-(diaminomethylene)-1-(2,4,6-trifluorophenyl)isoquinoline-7-carboxamide dihydrochloride]",1 to 10
10,NC(N)=NC(=O)c1ccc2ncc(Cl)c(-c3ccccc3)c2c1 [Example 74],1 to 10
11,NC(N)=NC(=O)c1ccc2nccc(C3=CCCCC3)c2c1 [Example 62],1 to 10
12,Cc1nc2ccc(C(=O)N=C(N)N)cc2c(-c2c(F)cncc2F)c1C [Example 131],10 to 100
13,NC(N)=NC(=O)c1ccc2c(F)cnc(-c3c(F)cncc3Cl)c2c1 [Example 164],1 to 10
14,COc1ccc(-c2c(Cl)cnc3ccc(C(=O)N=C(N)N)cc23)cc1 [Example 93],1 to 10
15,NC(N)=NC(=O)c1ccc2nccc(-c3ccccc3)c2c1 [Example 4],10 to 100
16,Cc1cc(C(=O)N=C(N)N)cc2c(-c3c(F)cc(F)cc3Cl)ccnc12 [Example 65],1 to 10
17,Cc1nc2ccc(C(=O)N=C(N)N)cc2c(-c2ccccc2Cl)c1C [Example 122],10 to 100
18,NC(N)=NC(=O)c1ccc2nc(C(F)(F)F)cc(-c3ccc(F)cc3F)c2c1 [Example 92],100 to 300
19,NC(N)=NC(=O)c1ccc2c(F)cnc(-c3ccncc3Cl)c2c1 [Example 163],10 to 100
20,NC(N)=NC(=O)c1ccc2nccc(-c3cccc(C(F)(F)F)c3F)c2c1 [Example 28],10 to 100
21,Cc1cnc(-c2c(F)cccc2Cl)c2cc(C(=O)N=C(N)N)ccc12 [Example 206],1 to 10
22,Cc1cc2ccc(C(=O)N=C(N)N)cc2c(-c2c(F)cccc2F)n1 [Example 155],10 to 100
23,NC(N)=NC(=O)c1ccc2nccc(-c3cc(C(F)(F)F)ccc3F)c2c1 [Example 25],10 to 100

row,SMILES,Ki [nM]
1,N#Cc1cnc(-c2c(F)cc(F)cc2F)c2cc(C(=O)N=C(N)N)ccc12 [Example 143],10 to 100
2,COc1cccc(F)c1-c1c(C)c(C)nc2ccc(C(=O)N=C(N)N)cc12 [Example 129],10 to 100
3,Cc1cc(C(=O)N=C(N)N)cc2c(C3=CCCC3)ccnc12 [Example 75],10 to 100
4,NC(=O)c1cc(-c2c(F)cc(F)cc2F)c2cc(C(=O)N=C(N)N)ccc2n1 [Example 30],10 to 100
5,Cc1cc(-c2c(F)cccc2Cl)c2cc(C(=O)N=C(N)N)ccc2n1 [Example 7],10 to 100
6,NC(N)=NC(=O)c1ccc2c(F)cnc(-c3c(F)cc(F)cc3F)c2c1 [Example 144],1 to 10
7,Cc1nc2ccc(C(=O)N=C(N)N)cc2c(-c2c(F)cccc2Cl)c1C [Example 121],1 to 10
8,NC(N)=NC(=O)c1ccc2ncc(Cl)c(C3CC3)c2c1 [Example 76],10 to 100
9,Cc1cnc2ccc(C(=O)N=C(N)N)cc2c1-c1c(F)cccc1F [Example 32],1 to 10
10,NC(N)=NC(=O)c1ccc2c(F)cnc(-c3ccccc3Cl)c2c1 [Example 161],1 to 10
11,Cc1nc2ccc(C(=O)N=C(N)N)cc2c(-c2ccc(F)cc2F)c1Cl [Example 88],1 to 10
12,Cc1cnc2ccc(C(=O)N=C(N)N)cc2c1-c1ccccc1F [Example 51],1 to 10
13,NC(N)=NC(=O)c1ccc2nccc(-c3c(F)cncc3F)c2c1 [Example 52],10 to 100
14,Cc1nc2ccc(C(=O)N=C(N)N)cc2c(-c2ccccc2F)c1C [Example 105],10 to 100
15,NC(N)=NC(=O)c1ccc2c(F)cnc(-c3ccncc3F)c2c1 [Example 165],10 to 100
16,NC(N)=NC(=O)c1ccc2nccc(-c3c(F)cc(F)cc3Cl)c2c1 [Example 8],1 to 10
17,CCc1cc(-c2c(F)cc(F)cc2F)c2cc(C(=O)N=C(N)N)ccc2n1 [Example 87],10 to 100
18,NC(N)=NC(=O)c1ccc2c(CO)cnc(-c3c(F)cccc3F)c2c1 [Example 224],10 to 100
19,NC(N)=NC(=O)c1ccc2nccc(-c3cc(Cl)ccc3Cl)c2c1 [Example 18],10 to 100
20,NC(N)=NC(=O)c1ccc2c(F)cnc(-c3c(O)cccc3F)c2c1 [Example 216],1 to 10
21,Cc1cc(C(=O)N=C(N)N)cc2c(-c3ccc(Cl)cc3Cl)ccnc12 [Example 45],10 to 100
22,COc1cccc(Cl)c1-c1ncc(F)c2ccc(C(=O)N=C(N)N)cc12 [Example 203],1 to 10
23,NC(N)=NC(=O)c1ccc2nccc(-c3ccc(F)cc3Cl)c2c1 [Example 15],1 to 10

row,SMILES,Ki [nM]
1,NC(N)=NC(=O)c1cnc2cccc(-c3c(F)cc(F)cc3F)c2c1 [Example 227],10 to 100
2,NC(N)=NC(=O)c1ccc2nccc(-c3ccc(Cl)cc3F)c2c1 [Example 14],10 to 100
3,NC(N)=NC(=O)c1ccc2c(Cl)cnc(-c3ccncc3F)c2c1 [Example 173],10 to 100
4,NC(N)=NC(=O)c1ccc2c(Cl)cnc(-c3ccc(F)cc3F)c2c1 [Example 211],1 to 10
5,Cc1cc(C(=O)N=C(N)N)cc2c(-c3cc(F)ccc3Cl)ccnc12 [Example 64],10 to 100
6,Cc1cc(C(=O)N=C(N)N)cc2c(-c3c(F)cccc3F)ccnc12 [Example 42],1 to 10
7,NC(N)=NC(=O)c1ccc2ccnc(-c3ccc(Cl)cc3Cl)c2c1 [Example 138],1 to 10
8,NC(N)=NC(=O)c1ccc2c(Cl)cnc(-c3cc(F)c(F)cc3F)c2c1 [Example 212],10 to 100
9,NC(N)=NC(=O)c1ccc2nccc(-c3cc(Cl)c(F)cc3F)c2c1 [Example 20],10 to 100
10,COc1ccc(F)c(-c2ccnc3c(C)cc(C(=O)N=C(N)N)cc23)c1F [Example 78],10 to 100
11,NC(N)=NC(=O)c1ccc2nccc(-c3cc(Cl)ccc3F)c2c1 [Example 22],10 to 100
12,NC(N)=NC(=O)c1ccc2ncc(Cl)c(-c3ccccc3F)c2c1 [Example 69],1 to 10
13,Cc1cc(-c2ccc(F)cc2F)c2cc(C(=O)N=C(N)N)cc(C)c2n1 [Example 85],1 to 10
14,NC(N)=NC(=O)c1ccc2c(F)cnc(-c3ccc(F)cc3)c2c1 [Example 190],1 to 10
15,Cc1nc2ccc(C(=O)N=C(N)N)cc2c(-c2ccccc2F)c1F [Example 125],10 to 100
16,COc1ncccc1-c1c(Cl)cnc2ccc(C(=O)N=C(N)N)cc12 [Example 106],10 to 100
17,NC(N)=NC(=O)c1ccc2ncc(Cl)c(C3=CCCC3)c2c1 [Example 107],1 to 10
18,Cc1cc(C(=O)N=C(N)N)cc2c(-c3ccc(Cl)cc3F)ccnc12 [Example 67],1 to 10
19,CC(C)c1cnc(-c2c(F)cccc2F)c2cc(C(=O)N=C(N)N)ccc12 [Example 158],10 to 100
20,Cc1nc2ccc(C(=O)N=C(N)N)cc2c(-c2ccc(F)cc2Cl)c1C [Example 126],1 to 10
21,Cc1nc(-c2c(F)cc(F)cc2F)c2cc(C(=O)N=C(N)N)ccc2c1F [Example 154],1 to 10
